Results on three compounds are retold here after patent US6713517B1, “Use of aryl N-substituted carboxamides directly and as radio-and chemosensitizers for killing tumor and cancer cells and novel compounds for such use” (OXiGENE, Inc., priority 1996, dated 2004).

The test system of series [1] is human lymphocytes (purified mononuclear leukocytes). In kind it is cell-based. The settings on record: for radiosensitization of cytotoxicity by apoptosis: 1 Gy radiation plus drug (100 μM MCA or 1000 μM others), FIG. 6B; for induction of / effect on apoptotic cytotoxicity: drug alone (FIG. 6A) or with 1 Gy radiation (FIG. 6B). The procedure: Evaluation of radiosensitization by apoptotic cytotoxicity. […] The cells were first exposed to the drugs for 30 minutes at 37° C. before being given 1 Gy irradiation (^137cesium source, Scanditronix, 1.56 Gy/min). The apoptotic and necrotic cells were analyzed and scored by phase contrast morphological criteria. Apoptotic cells have condensed chromatin and are trypan blue negative whereas necrotic cells stain blue with trypan blue.

Series [2] can be described thus: Solubility in water of the hydrochloride salt. It counts as physicochemical. The settings on record: amorphous hydrochloride salt. Here is the method:
Preparation of the hydrochloride salt of N-(2-diethylamino-ethyl)nicotinamide. The free base [compound (3)] was dissolved in n-propanol+n-butanol+0.1 M HClaq (2:1:1, v/v/v). An aliquate of 2 M aqueous […] was added to adjust the pH to 2. The solution was concentrated and the resulting amorphous material was dried under vacuum overnight.

“Also recorded” adds a separate entry of the source.

On to `NC(=O)c1cccnc1` [nicotinamide], for which, in series [1], the “radiosensitization of cytotoxicity by apoptosis” value is “not and does not sensitize cytotoxicity by apoptosis”; the “induction of / effect on apoptotic cytotoxicity” value is reported as “not able to affect cytotoxicity by apoptosis”.

For `CCN(CC)CCNC(=O)c1cccnc1.Cl` [N-(2-diethylaminoethyl) nicotinamide HCl], the solubility in water entry in series [2] is “readily soluble in water”.

Take `CCN(CC)CCNC(=O)c1cc(Cl)c(N)cc1OC` [metoclopramide, 4-amino-5-chloro-N-(2-diethylamino-ethyl)-2-methoxybenzamide]: in series [1], the “radiosensitization of cytotoxicity by apoptosis” value is reported as “having the properties to sensitize apoptotic cell killing by radiation; also recorded: effective” and the “induction of / effect on apoptotic cytotoxicity” value was “capable of inducing apoptotic cytotoxicity”.
